The results in this text go back to patent publication US20060160841A1, “Crystallization via high-shear transformation” (priority 2005, published 2006).

This data set can be described thus: Particle size D[90] of crystals before and after polymorph transformation. It is filed as physicochemical.

As for `COc1ccc(-n2nc(C(N)=O)c3c2C(=O)N(c2ccc(N4CCCCC4=O)cc2)CC3)cc1` [N-1, 1-(4-methoxyphenyl)-7-oxo-6-(4-(2-oxopiperidin-1-yl)phenyl)-4,5,6,7-tetrahydro-1H-pyrazolo[3,4-c]pyridine-3-carboxamide], the “particle size D[90]” value reads like this: (Example 1, small granular crystals after about 24 hours of recirculation through inline homogenization apparatus) “less than 20 μm”; (Example 2, small granular crystals after about 30 hours of recirculation by pump through outlet and inlet of vessel B) “less than 20 μm”; (Example 3, N-1 seeded, overhead homogenizer in transient vessel at 55-65° C., continuous transfer, filtered and dried) “less than 20 μm”.
As for `COc1ccc(-n2nc(C(N)=O)c3c2C(=O)N(c2ccc(N4CCCCC4=O)cc2)CC3)cc1` [H2-2, 1-(4-methoxyphenyl)-7-oxo-6-(4-(2-oxopiperidin-1-yl)phenyl)-4,5,6,7-tetrahydro-1H-pyrazolo[3,4-c]pyridine-3-carboxamide], the “particle size D[90]” value (Example 1, needle-shaped crystals formed in vessel B on adding PG solution to water/PG anti-solvent at 10 to 20° C., before recirculation) is “greater than 160 μm”.
